Experiment [1] has as its system neovascularization of the joint. Conditions: rat collagen arthritis model; Peacock et al. 1992; cited from earlier work.
The target in another experiment is Flk-1 (Mus musculus, UniProt P35918). Briefly: In Vitro Flk-1 ELISA Assay. The experiment is classed as biochemical, murine. The following applies: poly-Glu-Tyr coated plates, 3.3 μM ATP. The protocol: In Vitro Flk-1 ELISA Assay
The Flk-1 ELISA assay was performed on 96-well Costar 9018 high-binding plates coated overnight with poly-Glu-Tyr (Sigma #P 0275). After coating, plates were washed with 20 mM HEPES pH=7.5, 150 mM NaCl, 0.1% Tween-20. These plates were then blocked with Blocking Buffer (20 mM HEPES pH=7.5, 150 mM NaCl, 1% BSA, 0.1% Tween-20) for 1 hr at room temperature on a plate shaker. After washing, the reaction was prepared using 20 mM HEPES pH=7.5, 100 mM KCl, 10 mM MgCl2, 3 mM MnCl2 0.05% glycerol, 0.005% Triton X-100, 1 mM BME and 3.3 μM ATP. The assay was initiated with Flk-1 giving a final enzyme concentration of 50 ng/well.
The reaction was incubated at room temperature for 1 hr on a plate shaker and was stopped by washing the plate. The primary antibody incubation step was for 1 hour at room temperature using PT66 phosphotyrosine antibody (Sigma 1:5000 dilution). After washing, the plate was then incubated (1 hr room temp) with the secondary antibody solution of anti-mouse HRP-conjugated antibody (Amersham 1:5000 dilution). After another wash step, plates were developed using 100 μL TMB substrate solution (KPL) and then quenched with KPL stop solution. These quenched plates were read at 450 nm on a Molecular Devices spectrophotomer plate reader. For IC50 generation, compounds were added prior to the enzyme initiation. […]

Each structure is given as a SMILES string. Bounds are passed on as bounds.

Flk-1, sequence (P35918 20-1345): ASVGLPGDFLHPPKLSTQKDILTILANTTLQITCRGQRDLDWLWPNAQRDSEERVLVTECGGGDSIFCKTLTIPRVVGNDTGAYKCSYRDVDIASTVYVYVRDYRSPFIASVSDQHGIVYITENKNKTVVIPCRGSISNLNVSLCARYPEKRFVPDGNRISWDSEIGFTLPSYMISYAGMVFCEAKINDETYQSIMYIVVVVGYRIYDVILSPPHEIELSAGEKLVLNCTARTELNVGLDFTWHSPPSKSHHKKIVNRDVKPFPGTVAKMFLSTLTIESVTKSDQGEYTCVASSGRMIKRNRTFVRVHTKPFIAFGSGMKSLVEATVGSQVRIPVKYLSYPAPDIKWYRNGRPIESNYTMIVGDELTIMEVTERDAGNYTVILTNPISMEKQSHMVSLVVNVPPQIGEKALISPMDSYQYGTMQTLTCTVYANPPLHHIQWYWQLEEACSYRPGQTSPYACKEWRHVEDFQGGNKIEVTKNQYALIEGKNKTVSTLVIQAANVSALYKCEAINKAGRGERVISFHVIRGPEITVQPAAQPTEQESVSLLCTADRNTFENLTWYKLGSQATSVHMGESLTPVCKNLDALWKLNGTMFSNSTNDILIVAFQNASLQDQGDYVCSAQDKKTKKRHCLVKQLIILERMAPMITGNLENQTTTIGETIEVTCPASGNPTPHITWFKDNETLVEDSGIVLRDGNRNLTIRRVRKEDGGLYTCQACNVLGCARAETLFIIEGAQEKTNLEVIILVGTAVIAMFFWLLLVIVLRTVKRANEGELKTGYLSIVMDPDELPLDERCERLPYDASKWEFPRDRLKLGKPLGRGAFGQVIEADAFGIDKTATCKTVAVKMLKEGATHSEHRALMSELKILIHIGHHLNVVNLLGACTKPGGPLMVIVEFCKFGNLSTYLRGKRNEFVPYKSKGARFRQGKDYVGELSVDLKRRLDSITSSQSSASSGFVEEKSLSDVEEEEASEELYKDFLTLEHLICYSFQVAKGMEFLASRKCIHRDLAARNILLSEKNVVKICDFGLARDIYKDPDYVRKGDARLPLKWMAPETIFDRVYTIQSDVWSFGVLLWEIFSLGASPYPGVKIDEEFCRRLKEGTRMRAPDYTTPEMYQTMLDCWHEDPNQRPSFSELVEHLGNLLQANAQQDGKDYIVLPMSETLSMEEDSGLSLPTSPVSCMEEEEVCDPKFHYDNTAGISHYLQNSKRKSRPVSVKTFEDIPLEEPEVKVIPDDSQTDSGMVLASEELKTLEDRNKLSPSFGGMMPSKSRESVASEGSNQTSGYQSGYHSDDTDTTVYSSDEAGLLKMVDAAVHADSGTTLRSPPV

With `CO[C@@H]1[C@H](OC(=O)NC(=O)CCl)CC[C@]2(CO2)[C@H]1[C@@]1(C)O[C@@H]1CC=C(C)C` [AGM-170], in experiment [1], the “neovascularization of the joint” value is on record as “prevent neovascularization of the joint”.

Broadly, the IC50 is the midpoint of a concentration-inhibition curve. Lower therefore signals higher potency. At Flk-1, `Cc1ccc(-n2nc(C(C)(C)C)cc2NC(=O)Nc2ccc(OCCN3CCOCC3)c3ccccc23)cc1` [{[3-(tert-butyl)-1-(4-methylphenyl)pyrazol-5-yl]amino}-N-[4-(2-morpholin-4-ylethoxy)naphthyl]carboxamide] had an IC50 of under 1000 nM.

The values above are taken from patent publication US20040023961A1, “Aryl ureas with raf kinase and angiogenisis inhibiting activity” (BAYER CORPORATION, priority 2002, published 2004).
